Legend:
L1210 = assay: Inhibitory activity against L1210 murine leukemic cell line after 48 hr of exposure to compound; format: functional, cell-based; conditions: Mus musculus, L1210, 48 h
K562 = assay: Concentration required for inhibitory activity was evaluated against human leukemic K562 cell line; format: functional, cell-based

Cn1cc(NC(=O)c2cc(NC(=O)c3cc(NC(=O)[C@@H](N)CS)cn3C)cn2C)cc1C(=O)NCCC(=N)N showed an IC50 (L1210) of 7.96 µM and a Concentration (K562) of 10 µM.

For Cn1cc(NC(=O)c2cc(NC(=O)c3cc(NC=O)cn3C)cn2C)cc1C(=O)NCCC(=N)N, the IC50 (L1210) was 9.64 µM and the Concentration (K562) was 12 µM.
